# Measurements as given in patent publication US20240287138A1, “CYCLIC PEPTIDES FOR INHIBITING TNF RECEPTOR 1 ACTIVITY” (Merck Sharp & Dohme LLC, priority 2023, published 2024).
# Numbered stars: 1 amine (or outer) side, 2 acyl side, 3 side chain; on linkers, the order of the positions; unused ones are H or OH. Bridge positions count the residues as written; N and C are the ends. Square brackets hold non-standard residues; d marks the D form. Peptide text beside a SMILES is read from it. * marks the point of attachment. Trp(βS-Me,7-OMe) = COc1cccc2c([C@H](C)[C@H](N)C(=O)O)c[nH]c12; X24 = O=C(O)c1ccc([C@@H](O)[C@H](N[*:1])C(=O)[*:2])cc1; X28 = NC(=O)c1ccc([C@H](O)[C@H](N[*:1])C(=O)[*:2])cc1; Trp(7-CN) = N#Cc1cccc2c(C[C@H](N)C(=O)O)c[nH]c12; Trp(7-Cl) = N[C@@H](Cc1c[nH]c2c(Cl)cccc12)C(=O)O; X29 = NC(=O)Cc1cccc(C[C@H](N[*:1])C(=O)[*:2])c1; Phe(4-CONH2) = NC(=O)c1ccc(C[C@H](N)C(=O)O)cc1; Phe(4-COOH) = N[C@@H](Cc1ccc(C(=O)O)cc1)C(=O)O; Trp(7-aza) = N[C@@H](Cc1c[nH]c2ncccc12)C(=O)O; Pip(5R-OH) = O=C(O)[C@@H]1CC[C@@H](O)CN1; X1 = O=C([C@@H]1CC[C@H](N[*:1])C1)[*:2]; Gly(N(CH2)3COOH) = O=C(O)CCCNCC(=O)O; Pip(4-aza) = O=C(O)[C@@H]1CNCCN1; 4Pal = N[C@@H](Cc1ccncc1)C(=O)O; NMeE = CN[C@@H](CCC(=O)O)C(=O)O; dHyp = O=C(O)[C@H]1C[C@H](O)CN1; Pip = O=C(O)[C@@H]1CCCCN1; αMeS = C[C@](N)(CO)C(=O)O; Nle = CCCC[C@H](N)C(=O)O; Ethyl(2-NH2) = NCC*; Sar = CNCC(=O)O; X22 = C1CC1C*
# Columns and labels:
# [1] = biological target: T1, human soluble TNFR1 (sTNFR1) (Homo sapiens, UniProt P19438); assay: Human sTNFR1-peptide displacement assay (LanthaScreen Eu TR-FRET binding assay)
# T1 construct: made in house; host or cells: Sf21 (baculovirus)
# T1 sequence (P19438 with tags, fused parts or gaps): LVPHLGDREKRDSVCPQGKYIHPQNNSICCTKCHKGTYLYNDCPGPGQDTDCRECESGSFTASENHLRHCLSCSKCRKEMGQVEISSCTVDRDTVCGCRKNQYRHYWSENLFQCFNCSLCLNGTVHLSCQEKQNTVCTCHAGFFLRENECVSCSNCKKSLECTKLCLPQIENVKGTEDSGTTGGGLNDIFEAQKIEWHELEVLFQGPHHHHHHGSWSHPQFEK
# In short: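 Readout is the 665/615 nm TR-FRET ratio (Eu anti-His donor, streptavidin-Alexa647 acceptor), normalized to DMSO and saturating displacer, fit by Morrison-based five-parameter logistic for Kd^app. His-tagged sTNFR1 (1-211) prebound to 100 nM biotinylated peptide SEQ ID NO.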
# [2] = biological target: T2, human TNFR1 extracellular domain (ECD) protein (Homo sapiens, UniProt P19438); assay: SPR binding affinity to captured human TNFR1 ECD
# T2 construct: HRV 3C protease cleavage site (C); 6His (C, cleaved yes); made in house; host or cells: Sf21 insect cells (baculovirus), secreted
# T2 sequence (P19438 30-211): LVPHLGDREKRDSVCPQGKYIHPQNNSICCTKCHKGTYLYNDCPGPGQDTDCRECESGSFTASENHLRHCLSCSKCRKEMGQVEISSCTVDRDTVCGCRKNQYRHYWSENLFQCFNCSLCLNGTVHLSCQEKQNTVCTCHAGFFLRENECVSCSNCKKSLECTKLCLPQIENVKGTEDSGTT
# In short: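 Insect-cell human receptor ECDs, enzymatically biotinylated, immobilized via streptavidin capture chip. Peptide binding and dissociation measured in RU in pH 7.4 HEPES buffer containing 2% DMSO; chip regenerated per analyte. Rate constants give affinity.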
compound,measurement,setting,value
"COc1cccc2c([C@H](C)[C@@H]3NC(=O)CN(C)C(=O)[C@H](Cc4ccc(C(=O)O)cc4)NC(=O)[C@H](Cc4ccc(C(N)=O)cc4)NC(=O)[C@](C)(CO)NC(=O)[C@H](Cc4c[nH]c5c(Cl)cccc45)NC(=O)[C@H](Cc4ccc(C(=O)O)cc4)NC(=O)[C@H](CC(N)=O)NC(=O)[C@H]4C[C@H](O)CN4C(=O)[C@H](Cc4c[nH]c5ncccc45)NC(=O)[C@@H]4CC[C@@H](O)CN4C(=O)[C@H](Cc4ccncc4)NC(=O)[C@H](COCCN)NC(=O)[C@@H]4CC[C@@H](C4)NC3=O)c[nH]c12 [SEQ ID NO. 148] (cyclo([4Pal][Pip(5R-OH)][Trp(7-aza)][dHyp]N[Phe(4-COOH)][Trp(7-Cl)][αMeS][Phe(4-CONH2)][Phe(4-COOH)][Sar][Trp(βS-Me,7-OMe)][X1]S(Ethyl(2-NH2))))",Kd,[1],0.9 nM
same,Kd,[2],1.1 nM
"COc1cccc2c([C@H](C)[C@@H]3NC(=O)CN(C)C(=O)[C@H](Cc4ccc(C(=O)O)cc4)NC(=O)[C@H](Cc4ccc(C(N)=O)cc4)NC(=O)[C@](C)(CO)NC(=O)[C@H](Cc4c[nH]c5c(C#N)cccc45)NC(=O)[C@H](Cc4ccc(C(=O)O)cc4)NC(=O)[C@H](CC(N)=O)NC(=O)[C@H]4C[C@H](O)CN4C(=O)[C@H](Cc4c[nH]c5ncccc45)NC(=O)[C@@H]4CC[C@@H](O)CN4C(=O)[C@H](Cc4ccncc4)NC(=O)[C@H](COCC4CC4)NC(=O)[C@@H]4CC[C@@H](C4)NC3=O)c[nH]c12 [SEQ ID NO. 149] (cyclo([4Pal][Pip(5R-OH)][Trp(7-aza)][dHyp]N[Phe(4-COOH)][Trp(7-CN)][αMeS][Phe(4-CONH2)][Phe(4-COOH)][Sar][Trp(βS-Me,7-OMe)][X1]S(X22)))",Kd,[1],0.21 nM
same,Kd,[2],0.18 nM
"CCCC[C@@H]1NC(=O)[C@@H]2CC[C@@H](C2)NC(=O)[C@H]([C@@H](C)c2c[nH]c3c(OC)cccc23)NC(=O)CN(C)C(=O)[C@H](Cc2cccc(CC(N)=O)c2)NC(=O)[C@H](Cc2ccc(C(=O)O)cc2)NC(=O)[C@](C)(CO)NC(=O)[C@H](Cc2c[nH]c3c(Cl)cccc23)NC(=O)[C@H](Cc2ccncc2)NC(=O)[C@H](CC(N)=O)NC(=O)[C@H](CCC(=O)O)N(C)C(=O)[C@H](Cc2c[nH]c3ccccc23)NC(=O)[C@@H]2CNCCN2C(=O)[C@H](Cc2ccncc2)NC1=O [SEQ ID NO. 153] (cyclo([4Pal][Trp(7-Cl)][αMeS][Phe(4-COOH)][X29][Sar][Trp(βS-Me,7-OMe)][X1][Nle][4Pal][Pip(4-aza)]W[NMeE]N))",Kd,[1],0.23 nM
same,Kd,[2],0.16 nM
"CCCC[C@@H]1NC(=O)[C@@H]2CC[C@@H](C2)NC(=O)[C@H]([C@@H](C)c2c[nH]c3c(OC)cccc23)NC(=O)CN(C)C(=O)[C@H]([C@H](O)c2ccc(C(=O)O)cc2)NC(=O)[C@H]([C@@H](O)c2ccc(C(N)=O)cc2)NC(=O)[C@](C)(CO)NC(=O)[C@H](Cc2c[nH]c3c(C#N)cccc23)NC(=O)[C@H](Cc2ccncc2)NC(=O)[C@H](CC(N)=O)NC(=O)[C@H]2C[C@H](O)CN2C(=O)[C@H](Cc2c[nH]c3ccccc23)NC(=O)[C@@H]2CC[C@@H](O)CN2C(=O)[C@H](Cc2ccncc2)NC1=O [SEQ ID NO. 155] (cyclo([4Pal][Trp(7-CN)][αMeS][X28][X24][Sar][Trp(βS-Me,7-OMe)][X1][Nle][4Pal][Pip(5R-OH)]W[dHyp]N))",Kd,[1],0.1 nM
same,Kd,[2],0.02 nM
"CCCC[C@@H]1NC(=O)CSC[C@@H](C(N)=O)NC(=O)[C@H]([C@@H](C)c2c[nH]c3c(OC)cccc23)NC(=O)CN(C)C(=O)[C@H](Cc2ccc(O)cc2)NC(=O)[C@H](Cc2ccc(C(=O)O)cc2)NC(=O)[C@](C)(CO)NC(=O)[C@H](Cc2c[nH]c3c(Cl)cccc23)NC(=O)[C@H](Cc2ccncc2)NC(=O)[C@H](CC(N)=O)NC(=O)CN(CCCC(=O)O)C(=O)[C@H](Cc2c[nH]c3ncccc23)NC(=O)[C@@H]2CCCCN2C(=O)[C@H](Cc2ccncc2)NC1=O [SEQ ID NO. 157] ({CH2CO}-[Nle][4Pal][Pip][Trp(7-aza)][Gly(N(CH2)3COOH)]N[4Pal][Trp(7-Cl)][αMeS][Phe(4-COOH)]Y[Sar][Trp(βS-Me,7-OMe)]C-NH2; thioether N-14)",IC50,[1],0.72 nM
same,Kd,[1],0.64 nM
same,Kd,[2],0.5 nM
